Laboratory results reported in patent publication US6531465B1 (priority 1995, dated 2003).

Experiments:
[1] = system: Pseudomonas aeruginosa strain 27853; assay: Agar Dilution Test (NCCLS), Pseudomonas aeruginosa; type: cell-based
Source text: In particular, the active compounds of the invention show antimicrobial, e.g. antibacterial, activity against gram negative and gram positive bacteria such as Pseudomonas, e.g. Pseudomonas aeruginosa, Pseudomonas fluorescens; Enterobacter, e.g. Enterobacter cloacae; Enterococcus, e.g. Enterococcus faecalis; Moraxella, e.g. Moraxella catarrhalis; Haemophilus, e.g. Haemophilus influenza; Klebsiella, e.g. Klebsiella edwardsii, Klebsiella pneumoniae; Streptococcus, e.g. Streptococcus pneumoniae, Streptococcus durans, Streptococcus faecium, Streptococcus pyogenes; Staphylococcus, e.g. Staphylococcus aureus, Staphylococcus pyogenes; Escherichia, e.g. Escherichia coli; and Proteus, e.g. Proteus mirabilis in vitro in the Agar Dilution Test according to National Commitee for Clinical Laboratory Standards (NCCLS) 1993, Document M7-A3Vol.13, No. 25: “Methods for dilution Antimicrobial Susceptibility Tests for Bacteria that Grow Aerobically—Third Edition, Approved Standard” and in vivo in the septikaemic mouse model. […]
It has, for example, been determined that the MHK (μg/ml) of the compound of Example 139 against, for example Enterococcus faecalis strains ATTC 29212 or ATCC 51299, is of ca. 0.08 to 0.25; ainst Staphylococcus aureus strains ATCC 29213 or ATCC 9144 is of ca. 0.2 to 0.4 and against Pseudomonas aeruginosa strain 27853 is ca. 0.8.

[2] = system: Streptococcus pneumoniae, strain ATCC 49619; assay: Agar Dilution Test (NCCLS), Streptococcus pneumoniae; type: cell-based; settings: Example 139 tested in form of the trihydrochloride
Source text: In particular, the active compounds of the invention show antimicrobial, e.g. antibacterial, activity against gram negative and gram positive bacteria such as Pseudomonas, e.g. Pseudomonas aeruginosa, Pseudomonas fluorescens; Enterobacter, e.g. Enterobacter cloacae; Enterococcus, e.g. Enterococcus faecalis; Moraxella, e.g. Moraxella catarrhalis; Haemophilus, e.g. Haemophilus influenza; Klebsiella, e.g. Klebsiella edwardsii, Klebsiella pneumoniae; Streptococcus, e.g. Streptococcus pneumoniae, Streptococcus durans, Streptococcus faecium, Streptococcus pyogenes; Staphylococcus, e.g. Staphylococcus aureus, Staphylococcus pyogenes; Escherichia, e.g. Escherichia coli; and Proteus, e.g. Proteus mirabilis in vitro in the Agar Dilution Test according to National Commitee for Clinical Laboratory Standards (NCCLS) 1993, Document M7-A3Vol.13, No. 25: “Methods for dilution Antimicrobial Susceptibility Tests for Bacteria that Grow Aerobically—Third Edition, Approved Standard” and in vivo in the septikaemic mouse model. The active compounds of the invention show activity in the mouse when administerd at dosages from about 0.05 to 50 mg/kg body weight (ED50 values).The active compounds show an MHK(μg/ml) in the Agar Dilution Test from about 0.005 to ca. 50. The active compounds of the invention show an surprising overall activity spectrum.

Row | Compound | MHK [1] | MHK [2]
1 | 7-[[(5-Amino-1,2,4-thiadiazol-3-yl)-(Z)-(fluormethoxyimino)acetyl]amino]-3-[[(piperazinoiminomethyl)hydrazono]methyl]-3-cephem-4-carboxylic acid [Example 139] | ca. 0.8 μg/ml | ca. 0.01 μg/ml
2 | CO/N=C(\C(=O)N[C@@H]1C(=O)N2C(C(=O)O)=C(CSc3nc(=O)c(=O)[nH]n3C)CS[C@H]12)c1csc(N)n1 [ceftriaxone, reference compound] | – | ca. 0.02 μg/ml
